Data taken from patent US8951529B2, “Methods of using small compounds to enhance myeloid derived suppressor cell function for treating autoimmune diseases” (Icahn School of Medicine at Mount Sinai, priority 2009, dated 2015).

Experiments:
[1] = tested on: MLN T cells; assay: MLN cell proliferation assay from IBD mice; assay type: in vivo, mouse; details: +PHA, 72 hours, [3H]-thymidine, day 11, DSS-treated mice, FIG. 7
Description: On day 11 after IBD induction, mice were terminated, and MLN cells were isolated and cultured in the presence or absence of PHA. [3H]-thymidine was pulsed during the last 8 hours of 72-hour culture for the measurement of T cell proliferation.
To assess the proliferative capability of T cells from treated mice, on day 11 following IBD induction, splenocytes and […] lymph node (MLN) cells from treated mice were stimulated with (+PHA) or without PHA (˜) for 72 hours. [3H]-thymidine was pulsed during the last 8 hours of 72-hour culture. […] The percentage of Treg cells is defined as the percent cells that are stained positive for CD4, CD25, and intracellular Foxp3.

[2] = tested on: MDSCs; assay: Treg induction by MDSCs with or without LPS; assay type: cell-based, mouse; details: five days, FIG. 9A
Text: Five days later, cells were harvested and stained with anti-CD4-FITC+anti-CD25-APC+anti-Foxp3-PE or isotype controls followed by flow cytometry.

[3] = tested on: DSS-induced colitis; assay: DSS-induced colitis in vivo model; parameters: species or system C57BL/6 mice
Text: In certain aspects, the invention is related to the treatment of IBDs. Mouse models of IBD are well known in the art, and may be used to model human IBDs. For example, dextran sodium sulfate (DSS) may be administered to mice to induce IBD. In this model, mice are fed with water containing 3.5% DSS from day 0 to day 11. Following treatment, mice develop colitis. The severity of colitis is quantified (assigned a clinical score) by assessing stool consistency, bleeding, and weight loss, which ranges from 0 (healthy) to 4 (maximal severity). Histologically, DSS produces submucosal erosions, ulceration, inflammatory cell infiltration and crypt abscess as well as epithelioglandular hyperplasia. […] [Kawada et al., 2007, World J. Gastroenterol. 13: 5581-5593; Okayasu et al., 1990, Gastroenterology 98:694-702]
For adoptive transfer of MDSCs, 5×10^6 purified MDSCs suspended in PBS were administered by intravenous infusion at day 0 and day 7.
Mice were left untreated or treated with sorted MDSCs (5×10^6 cells/mouse) alone or in combination with GA and/or SP600125 (Sigma-Aldrich), on the day of disease induction. […] The severity of colitis was quantitated as a clinical score by assessing stool consistency, bleeding, and weight loss, which ranges from 0 (healthy) to 4 (maximal severity). The clinical score (weight loss, stool consistency, and bleeding) of treated mice was assessed in a double-blind fashion.
On day 11 post-IBD induction, colon tissues from treated mice were removed, fixed in 3% formaldehyde, sectioned, and stained with H&E staining to determine the pathology score of colitis. To reflect the general condition of the mice, a disease activity index (DAI) was determined by an investigator blinded to the protocol by scoring the extent of body weight loss, stool guaiac positivity or gross bleeding, and stool consistency according to the method described in Murthy et al. (1993) “Treatment of Dextran Sulfate Sodium-Induced Murine Colitis by Intracolonic Cyclosporin,” Digest. […] Stool consistency and the degree of blood in stool were evaluated on the day when animals were killed. […]

L-glutamic acid polymer with L-alanine, L-lysine and L-tyrosine, acetate (salt) [GA]
T-cell proliferation of MLN cells [1]: lower level | Treg cell induction by MDSCs without LPS ([2]; CD4+ HA TCR splenocytes): 11.1% | Treg cell induction by MDSCs with LPS ([2]; LPS 100 ng/mL): 5.31% | decrease in colonic length ([3]; day 11, in comparison with naive healthy mice, FIG. 5C): 45% | IBD clinical score ([3]; scale 0-4, 3.5% DSS day 0 to 11, GA s.c., SP600125 i.p. daily, MDSCs 5×10^6 i.v. days 0 and 7, FIG. 5A): did not significantly lower
